These are literature values, as cited in US7098224B2, “Hydroxylansoprazole methods” (Sepracor Inc., priority 1998, dated 2006).

pIC50: −log10 of the molar value.

The data set relates to isolated parietal cells. The note with it: Inatomi et al., Yakuri to Chiryo 19, 477–486 (1991).

In the case of `Cc1c(OCC(F)(F)F)ccnc1C[S+]([O-])c1nc2cc(O)ccc2[nH]1` (racemic) [racemic hydroxylansoprazole, 2[[[3-methyl-4-(2,2,2-trifluoroethoxy)-2-pyridinyl]methyl]sulfinyl]-1 H-benzimidazol-5-ol], the “inhibition of acid formation in isolated parietal cells (result in words)” value is given as “did not inhibit acid formation”.

Regarding `Cc1c(OCC(F)(F)F)ccnc1C[S+]([O-])c1nc2ccccc2[nH]1` (racemic) [lansoprazole, Lansoprazole], the pIC50 (read-out: inhibited acid formation in isolated parietal cells, IC50) is 7.05.
